Assay results reported in patent publication US12507703B2, “Methods, devices and compositions for preserving human milk” (The Trustees of Princeton University, priority 2023, dated 2025).
Values joined by “and” are separate entries in the source; they are usually repeats but may differ in a detail not shown here. Equal values may be shown once.

What follows are molecules tested on lipase (assay: Lipase/lipolysis assay (EnzChek Lipase Substrate, quenched BODIPY-fatty acid conjugate) on stored human milk; note: test concentration or dose not given here).

Row | Molecule | Lipase (RFU)
1 | CCCCC/C=C\C/C=C\CCCCCCCC(=O)O[C@H](COC(=O)CCCCCCCCCCCCCCCCC)COP(=O)([O-])OCC[N+](C)(C)C | 1049.632 RFU
2 | O=C(O)CC(O)(C(=O)O)C(O)C(=O)O (centres unmarked) | 1053.487 RFU
3 | C[S+](CC[C@H](N)C(=O)[O-])C[C@H]1O[C@@H](n2cnc3c(N)ncnc32)[C@H](O)[C@@H]1O.Cc1ccc(S(=O)(=O)O)cc1.O=S(=O)(O)O.O=S(=O)(O)O (some centres unmarked) | 726.0141 RFU
4 | CCCCCCCCCCCCCC(=O)OC[C@H](COP(=O)(O)OCCN)OC(=O)CCCCCCCCCCCCC | 805.4396 RFU
5 | 1,4-Dicaffeoylquinic acid | 794.8464 RFU
6 | Nc1nc(=O)c2c([nH]1)NCC(CNc1ccc(C(=O)N[C@@H](CCC(=O)O)C(=O)O)cc1)N2C=O (mixture of isomers) [Folinic acid] | 949.4803 RFU
7 | O=C1O[C@H]2[C@@H]3OC(=O)c4cc(O)c(O)c(O)c4-c4c(O)c(O)c5oc(=O)c6c(c(O)c(O)c7oc(=O)c4c5c76)-c4c(cc(O)c(O)c4O)C(=O)OC[C@H]3OC(O)[C@@H]2OC(=O)c2cc(O)c(O)c(O)c2-c2c1cc(O)c(O)c2O (mixture of isomers) [Punicalagin] | 646.9241 RFU
8 | c1cncc([C@@H]2CCCCN2)c1 (racemic) [(±) Anabasine] | 1022.058 RFU
9 | C[N+](C)(C)CC(O)CC(=O)[O-] (racemic) [D,L-Carnitine] | 1067.602 RFU and 1032.196 RFU
10 | CCSCCC(N)C(=O)O (racemic) [D,L-Ethionine] | 921.5463 RFU
11 | NC(=O)CCCCC1CCSS1 (racemic) [D,L-Lipoamide] | 1094.48 RFU
12 | O=C(O)CC(O)C(=O)O (racemic) [D,L-Malic Acid] | 781.9881 RFU
13 | NC(Cc1ccc(O)c(O)c1)C(=O)O (racemic) [DL-Dopa] | 819.29 RFU
14 | CC1CCC(C(C)C)C(O)C1 (racemic) [DL-Menthol] | 1275.242 RFU
15 | NC(COP(=O)(O)O)C(=O)O (racemic) [DL-O-Phosphoserine] | 728.85 RFU
16 | NC(Cc1ccccc1O)C(=O)O (racemic) [DL-O-Tyrosine] | 919.2122 RFU
17 | O=C(O)C(O)C(O)C(=O)O (racemic) [DL-Tartaric acid] | 1079.017 RFU
18 | NC(Cc1c[nH]c2ccccc12)C(=O)O (racemic) [DL-Tryptophan] | 935.3545 RFU
19 | CC(=O)Oc1c(C)c(C)c2c(c1C)CCC(C)(CCCC(C)CCCC(C)CCCC(C)C)O2 (racemic) [DL-α-Tocopherol acetate] | 697.673 RFU
20 | Cc1cc(O)c(C)c2c1O[C@](C)(CCC[C@H](C)CCC[C@H](C)CCCC(C)C)CC2 (relative stereo) [(rel)-β-Tocopherol] | 1146.301 RFU
21 | CC1(C)CCCC2(C)OC(=O)C=C12 (single isomer, unassigned; (+)) [(+)-Dihydroactinidiolide] | 951.3124 RFU
22 | COC1=CC(=O)OC(/C=C/c2ccccc2)C1 (single isomer, unassigned; (+)) [(+)-Kavain] | 895.974 RFU
23 | COc1cc([C@H]2OC[C@@H]3C(c4cc(OC)c(O)c(OC)c4)OC[C@H]23)ccc1O (single isomer, unassigned; (+)) [(+)-Medioresinol] | 1166.732 RFU
24 | COc1cc(C=CC(=O)O)cc(OC)c1O (stereo in doubt) [Sinapinic acid] | 1040.338 RFU

Row | Molecule | Lipase (RFU)
25 | COc1ccccc1OC [1,2-Dimethoxybenzene] | 1094.378 RFU and 752.9866 RFU
26 | CC(O)CO (centres unmarked) [1,2-Propanediol] | 1150.168 RFU
27 | C1CSCSC1 [1,3-Dithiane] | 1179.502 RFU
28 | CC(C)C12CCC(C)(CC1)O2 [1,4-Cineole] | 770.6625 RFU and 1018.049 RFU
29 | Cl.Cl.NCCCCN [1,4-Diaminobutane (dihydrochloride)] | 865.534 RFU
30 | CC(=O)C(=O)c1ccccc1 [1-Phenylpropane-1,2-dione] | 1078.742 RFU
31 | COC1=CC(=O)C=C(OC)C1=O [2,6-Dimethoxy-1,4-benzoquinone] | 934.6959 RFU
32 | O=C1c2ccccc2C(=O)c2cc(CO)ccc21 [2-(Hydroxymethyl)anthraquinone] | 723.6408 RFU
33 | NC(=O)NCCCC(N)C(=O)O (centres unmarked) [2-Amino-5-ureidopentanoic acid] | 983.9261 RFU
34 | NCCO [2-Aminoethanol] | 533.8 RFU
35 | NCCP(=O)(O)O [2-Aminoethyl Phosphonic Acid] | 863.4665 RFU
36 | COc1ccccc1C(=O)O [2-Methoxybenzoic acid] | 739.8823 RFU and 1090.701 RFU
37 | CC(=O)c1ccccc1N [2′-Aminoacetophenone] | 970.2571 RFU
38 | Nc1ncnc2c1ncn2[C@H]1C[C@H](O)[C@@H](CO)O1.O [2′-Deoxyadenosine monohydrate] | 945.7798 RFU
39 | Nc1nc2c(ncn2[C@H]2C[C@H](O)[C@@H](CO)O2)c(=O)[nH]1.O [2′-Deoxyguanosine monohydrate] | 782.4513 RFU
40 | COc1cc(C(=O)O)cc(OC)c1OC [3,4,5-Trimethoxybenzoic acid] | 1121.402 RFU
41 | COc1cc(C=CC(=O)O)cc(OC)c1OC [3,4,5-Trimethoxycinnamic acid] | 1076.789 RFU
42 | O=C(/C=C/c1ccc(O)c(O)c1)O[C@H]1[C@H](O)C[C@](O)(C(=O)O)C[C@H]1OC(=O)/C=C/c1ccc(O)c(O)c1 [3,4-Dicaffeoylquinic acid] | 721.4239 RFU
43 | CC(=O)O[C@@H]1CC[C@@]2(C)[C@@H](CC[C@]3(C)[C@@H]2CC=C2[C@@H]4[C@@H](C)[C@H](C)CC[C@]4(C)CC[C@]23C)[C@@]1(C)C(=O)O [3-Acetyl-beta-boswellic acid] | 752.9436 RFU
44 | CCCC=C1OC(=O)c2ccccc21 [3-Butylidenephthalide] | 952.6722 RFU
45 | CC1(C)CC[C@]2(C(=O)O)CC[C@]3(C)C(=CC[C@@H]4[C@@]5(C)CC[C@@H](O)C(C)(C)[C@@H]5CC[C@]43C)[C@@H]2C1 [3-Epioleanolic acid] | 1064.911 RFU
46 | C[C@H]1[C@H](C)CC[C@]2(C(=O)O)CC[C@]3(C)C(=CC[C@@H]4[C@@]5(C)CC[C@H](O)C(C)(C)[C@@H]5CC[C@]43C)[C@H]12 [3-Epiursolic Acid] | 968.3096 RFU
47 | COc1cc(CCN)ccc1O.Cl [3-Methoxytyramine (hydrochloride)] | 963.841 RFU
48 | COc1ccc(-c2cc(=O)c3c(OC)c(OC)c(OC)c(OC)c3o2)cc1O [3′-Demethylnobiletin] | 794.5882 RFU

Row | Molecule | Lipase (RFU)
49 | O=C(C=Cc1ccc(O)c(O)c1)OC1CC(O)(C(=O)O)CC(O)C1OC(=O)C=Cc1ccc(O)c(O)c1 (centres unmarked) [4,5-Dicaffeoylquinic acid] | 1065.884 RFU
50 | CC(=O)c1ccc(O)cc1 [4-Hydroxyacetophenone] | 724.0191 RFU
51 | N#CCc1ccc(O)cc1 [4-Hydroxybenzyl cyanide] | 1050.204 RFU
52 | COc1cc(OC)c2c(=O)cc(-c3ccc(OC)c(OC)c3)oc2c1 [5,7,3′,4′-Tetramethoxyflavone] | 1023.427 RFU
53 | Cl.NCC(=O)CCC(=O)O [5-Aminolevulinic acid (hydrochloride)] | 643.3591 RFU
54 | COc1ccc(-c2cc(=O)c3c(O)c(OC)c(OC)cc3o2)cc1OC [5-Desmethylsinensetin] | 571020.7 RFU
55 | OCCc1c[nH]c2ccc(O)cc12 [5-Hydroxytryptophol] | 681.6533 RFU
56 | O=C(CO)[C@@H](O)[C@H](O)[C@@H](O)C(=O)O [5-Keto-D-Gluconic Acid] | 922.1469 RFU
57 | COc1ccc2[nH]cc(CCO)c2c1 [5-Methoxytryptophol] | 1031.531 RFU
58 | O=C(C=Cc1ccc(O)c(O)c1)OC1CC(C(=O)O)=CC(O)C1O (centres unmarked) [5-O-Caffeoylshikimic acid] | 1072.132 RFU
59 | CC(=O)[C@H]1CC[C@H]2[C@@H]3CC[C@H]4CC(=O)CC[C@]4(C)[C@H]3CC[C@]12C [5a-Pregnane-3,20-dione] | 1117.705 RFU
60 | Nc1nc2c(ncn2[C@@H]2O[C@H](COP(=O)([O-])[O-])[C@@H](O)[C@H]2O)c(=O)[nH]1.[Na+].[Na+] [5′-Guanylic acid (disodium salt)] | 910.9839 RFU
61 | COc1ccc(-c2cc(=O)c3c(OC)cc(OC)c(OC)c3o2)cc1 [6-Demethoxytangeretin] | 818.2248 RFU
62 | O=c1cc(-c2ccc(O)c(O)c2)oc2cc(O[C@@H]3O[C@H](CO)[C@@H](O)[C@H](O)[C@H]3O)c(O)c(O)c12 [6-Hydroxyluteolin 7-glucoside] | 1135.118 RFU
63 | O=C(O)c1ccc(O)nc1 [6-Hydroxynicotinic acid] | 655.7069 RFU
64 | C[C@H](O)[C@H](O)C1=Nc2c(nc(N)[nH]c2=O)NC1 [7,8-Dihydro-L-biopterin] | 1090.909 RFU
65 | C[C@H](CCC(=O)O)[C@H]1CC[C@H]2[C@@H]3C(=O)C[C@@H]4C[C@H](O)CC[C@]4(C)[C@H]3CC[C@]12C [7-Ketolithocholic acid] | 991.8245 RFU
66 | C[C@H](CCC(=O)O)[C@H]1CC[C@H]2[C@@H]3C(=O)C[C@@H]4C[C@H](O)CC[C@]4(C)[C@H]3C[C@H](O)[C@]12C [7-keto-Deoxycholic acid] | 890.8412 RFU
67 | CC(C)CCC[C@@H](C)[C@H]1CC[C@H]2C3=C(CC[C@]12C)[C@@]1(C)CC[C@H](O)CC1=CC3 [8-Dehydrocholesterol] | 707.3733 RFU
68 | C[C@]12CCC(=O)C=C1CC[C@@H]1[C@@H]2[C@@H](O)C[C@]2(C)C(=O)CC[C@@H]12 [11-Beta-hydroxyandrostenedione] | 1190.299 RFU
69 | O=C(O)CCCCCCCCCCCO [12-Hydroxydodecanoic acid] | 778.3097 RFU
70 | C[C@H](CCC(=O)O)[C@H]1CC[C@H]2[C@@H]3CC[C@@H]4CC(O)CC[C@]4(C)[C@H]3CC(=O)[C@]12C (some centres unmarked) [12-Ketodeoxycholic acid] | 778.2255 RFU
71 | CC(=O)[C@@]1(O)CC[C@H]2[C@@H]3CCC4=CC(=O)CC[C@]4(C)[C@H]3CC[C@@]21C [17α-Hydroxyprogesterone] | 867.6703 RFU
